Test results taken from patent EP1633390B1, “STABILIZED PHARMACEUTICAL GLP-1 PEPTIDE COMPOSITIONS” (NOVO NORDISK A/S, priority 2003, dated 2012).

Assay: Thioflavin T-test (ThT-test) of physical stability / fibril formation of the formulations
Assay type: physicochemical
Experimental: Physical stability of the formulations is evaluated by means of the Thioflavin T-test. The physical stability of the different formulations is characterized by their tendency to form fibrils. A method to determine the presence of fibrils is the Thioflavin T-test. The histological thiazole dye Thioflavin T (ThT) is used as an indicator of amyloid fibril formation. The method is based on the fluorescent characteristics of ThT. […] The physical stability of the formulations is evaluated by the ThT-test after storage of the formulation is top filled glass cartridges for various time periods.

## CCCCCCCCCCCCCCCC(=O)N[C@@H](CCC(=O)NCCCC[C@H](NC(=O)[C@H](C)NC(=O)[C@H](C)NC(=O)[C@H](CCC(N)=O)NC(=O)CNC(=O)[C@H](CCC(=O)O)NC(=O)[C@H](CC(C)C)NC(=O)[C@H](Cc1ccc(O)cc1)NC(=O)[C@H](CO)NC(=O)[C@H](CO)NC(=O)[C@@H](NC(=O)[C@H](CC(=O)O)NC(=O)[C@H](CO)NC(=O)[C@@H](NC(=O)[C@H](Cc1ccccc1)NC(=O)[C@@H](NC(=O)CNC(=O)[C@H](CCC(=O)O)NC(=O)[C@H](C)NC(=O)[C@@H](N)Cc1cnc[nH]1)[C@@H](C)O)[C@@H](C)O)C(C)C)C(=O)N[C@@H](CCC(=O)O)C(=O)N[C@@H](Cc1ccccc1)C(=O)N[C@H](C(=O)N[C@@H](C)C(=O)N[C@@H](Cc1c[nH]c2ccccc12)C(=O)N[C@@H](CC(C)C)C(=O)N[C@H](C(=O)N[C@@H](CCCNC(=N)N)C(=O)NCC(=O)N[C@@H](CCCNC(=N)N)C(=O)NCC(=O)O)C(C)C)[C@@H](C)CC)C(=O)O [Compound 1, Arg^34, Lys^26 (N^∈-(γ-Glu(N^α-hexadecanoyl)))-GLP-1 (7-37)]
Compound 1 adjusted to pH 8.0 before freeze drying, after 1 week and 1 months storage at 37°C
  physical stability (change in ThT): an increase in ThT is seen
Compound 1 adjusted to pH 9.5 and 11.5 before freeze drying, after 1 week and 1 months storage at 37°C
  physical stability (change in ThT): no increase in ThT is seen
Formulation manufactured by raising pH above neutral pH (> 8) in the solution containing the drug substance, after 1 month at 37°C
  physical stability (change in ThT): no increase in ThT is seen
